Data set [1] relates to MRSA NRS108. Description: MIC broth dilution. The following applies: Staphylococcus aureus. The class given is cell-based, Methicillin-resistant Staphylococcus aureus. In general terms: Dilution methods test growth across graded concentrations, often in twofold steps.
Data set [2] has as its system E. faecium MG1953. In words: MIC broth dilution. The note with it: Enterococcus faecium. In kind it is cell-based.
For data set [3], the system named is S. pneumoniae BAA225. Description: MIC broth dilution. In kind it is cell-based. The following applies: Streptococcus pneumoniae.
Data set [4] deals with MRSA NRS1. Description: MIC broth dilution. In kind it is cell-based, Methicillin-resistant Staphylococcus aureus. The following applies: Staphylococcus aureus.
Data set [5] concerns MRSA and VRE. Description: Effect of serum on NOVO4 MIC. The note with it: MIC without serum compared to media with 10% calf bovine serum. The class given is cell-based. The protocol:
These studies follow the procedure for determining the MIC described above in Example 5. Briefly, two-fold serial dilution of the NOVO4 compound are added to the test cells of interest, MRSA and VRE, and the lowest concentration of compound that inhibits growth after a period of incubation is considered to be the MIC. To determine the effect of serum on the activity of NOVO4, MIC in the absence of serum is compared to MIC in media supplemented with 10% calf bovine serum (ATCC 30-2030).

The subject of data set [6] is E. faecium E4So1. In words: MIC broth dilution. The class given is cell-based. The note with it: Enterococcus faecium.
The subject of data set [7] is E. faecium (VRE JM89). Description: MIC broth dilution. The class given is cell-based. The note with it: Enterococcus faecium.
Data set [8] has as its system B. subtilis 1A1. Description: MIC broth dilution. In kind it is cell-based. The note with it: Bacillus subtilis, 1A1, B. subtilis 1A1.
Data set [9] has as its system B. anthracis sterne. In words: microbe, parasite or virus in culture. In kind it is cell-based. The note with it: Bacillus anthracis.
For data set [10], the system named is NIH3T3 mouse embryonic fibroblasts. Description: Mammalian cytotoxicity assay (CellTiter 96 AQueous One). The class given is cell-based. The note with it: NIH3T3 cells, 24 hr, highest tested 16 μg/ml. As for the experimental part:
Mammalian cytotoxicity assays were performed using NIH3T3 mouse embryonic fibroblasts (ATCC CRL-1658), and cytotoxicity was measured using the CellTiter 96® AQueous One Solution Cell Proliferation Assay (Promega, Madison, Wis., Cat: G3582), according to the manufacturer's recommendations.
100× working stocks of 2-fold serial dilution of NOVO4 in DMSO were created in a 96 well format. The highest concentration of the 100× concentration (working stock) was prepared by adding […] of the stock solution of NOVO4 (10 mg/ml in DMSO) for every 0.68 μl of DMSO to well A02. 0.5 μl of this 100× stock was added for every 0.5 μl of DMSO in well A03 to create a total of 7 two-fold serial dilution series, from 1600 μg/ml to 25 μg/ml (from highest in well A02 to A08,). A DMSO control was also included (wells in column A01, and A12). […]
The plate was visually inspected under a dissecting microscope, and the absorbance at 490 nm was read using a Spectramax Plus Spectrophotometer, with wells A12, and B12 reserved as blanks. The signal of compound alone (well A11) was verified not to contribute to the absorbance at this wavelength. Next, 20 μl of the CellTiter 96® AQueous One Solution Cell Proliferation Assay (Promega, Madison, Wis., Cat: G3582) was added to each well, and the plate was read after 3 hr of incubation. […]

The subject of data set [11] is MSSA (ATCC 13709). Description: MIC broth dilution. The class given is cell-based, Staphylococcus aureus.
The test system of data set [12] is E. faecalis (VRE BM4147). Description: MIC broth dilution. The class given is cell-based. The following applies: Enterococcus faecalis.
The nature of data set [13]: physchem.
In data set [14] the test system is bacterial cells. Description: Solid agar growth inhibition zone assay. The class given is cell-based. The note with it: MHB agar, 5 μl spot, 16 hr to 24 hr incubation; strain not named. The protocol:
This can be achieved in different assay format; bacteria growing on solid agar media or bacteria growing in broth such as for Example 5 and 6 (Minimal Inhibition Concentration).
For solid agar format, bacterial cells are first grown in a suitable media such as Mueller Hinton broth (MHB) until exponential phase (OD600<1.0). The cells are diluted back to OD600=0.02 in MHB, and evenly applied as a thin layer on the surface of a plate of solid growth media, such as MHB agar (about 0.1 ml onto a surface area of 100 cm^2). After the surface is dried, a 5 μl aliquot of a 2-fold serial dilution of NOVO4 (in 50% DMSO) is spotted onto the surface of the agar plate. After 16 hr to 24 hr of incubation, depending on the bacterial strain of interest, the diameter of zones of growth inhibition is measured.

The subject of data set [15] is human red blood cells. In kind it is cell-based. As for the experimental part:
The effect of NOVO4 on the hemolysis of human red blood cells was also tested. A total of 10 ml of expired packed red blood cells from the blood bank was gently added to 80 ml of PBS (Phosphate buffered saline), and pelleted at 1000 g for 5 minutes at 4° C. The upper phase and buffy layer (white blood cells) were removed. The cells are repeatedly washed by gentle mixing with PBS, and centrifugation until the upper phase is clear. In the last wash, 40 ml of 1×PBS with 0.05% BSA was added to half of the red blood cells while 40 ml of 1×PBS without BSA was added to the other half. The upper phase of the last wash was removed to leave a total volume of about 10 ml. The concentration of the red blood cells was measured by using the spectrophometer at 600 nm. An aliquot of the cells are diluted to a final density OD600 of 24 in 1×PBS, and another to a final density OD600 of 24 in 1×PBS with 0.05% BSA.
The compound NOVO4 is two-fold serially diluted (similar to that described above for mammalian NIH3T3 cytotoxicity assay) as 100× concentration in DMSO, ranging from 0.4 μg/ml to 400 μg/ml. […] After thorough mixing, the A450 was read using a Spectramax Plus Spectrophotometer, using wells with only 1×PBS as blanks. […]

Values after ≈ are worked out from the molar mass of the structure shown. Like-named read-outs stand apart in the source and are kept apart here. A value given as a limit tells only on which side of the number the result lay.

Usually solubility stands for how much of the substance goes into solution per volume. Take `CC1\C=C/C=C\C=C/C=C\C=C/C(OC2OCC(O)C(O)C2N)C(C)(O)/C=C/C=C\C=C/C=C/C(=O)NC1` (stereo not shown) [NOVO4]: the MIC in data set [1] (MHB) is 1 to 8 µg/mL (≈ 1.91 to 15.2 µM); in data set [1] (MHB + 0.05% BSA) it was 2 µg/mL; in data set [1] (MHB + 10% FCS), 0.5 to 2 µg/mL; in [2] (MHB), 2 to 4 µg/mL (≈ 3.81 to 7.62 µM); in data set [2] (MHB + 0.05% BSA) it was 1 to 2 µg/mL; in data set [2] (MHB + 10% FCS), 2 µg/mL. In addition, the MIC in data set [3] (MHB) is 1 to 2 µg/mL (≈ 1.91 to 3.81 µM); in data set [3] (MHB + 0.05% BSA), 1 to 2 µg/mL; in data set [3] (MHB + 10% FCS) it was 2 to 4 µg/mL; in [4] (MHB) it was 2 to 4 µg/mL (≈ 3.81 to 7.62 µM); in data set [4] (MHB + 0.05% BSA), 0.5 µg/mL; in data set [4] (MHB + 10% FCS), 1 µg/mL. The MIC stood at 2 µg/mL (≈ 3.81 µM) in [6] (MHB); 1 µg/mL in [6] (MHB + 0.05% BSA); 1 µg/mL in data set [6] (MHB + 10% FCS); 4 µg/mL (≈ 7.62 µM) in [7] (MHB); 2 µg/mL in data set [7] (MHB + 0.05% BSA); 2 µg/mL in [7] (MHB + 10% FCS). Moreover, the MIC in [8] (MHB) was 0.06 to 1 µg/mL (≈ 0.114 to 1.91 µM); in [8] (MHB + 0.05% BSA), 0.125 µg/mL; in [8] (MHB + 10% FCS), 0.06 to 0.5 µg/mL; in data set [9] (MHB), 0.25 to 0.5 µg/mL (≈ 0.477 to 0.953 µM); in [9] (MHB + 0.05% BSA), 0.125 to 0.5 µg/mL; in data set [9] (MHB + 10% FCS) it was 0.25 to 0.5 µg/mL. Moreover, the MIC in data set [11] (MHB + 0.05% BSA) is 0.25 µg/mL; in data set [11] (Staphylococcus aureus, MHB + 10% FCS), 0.25 to 0.5 µg/mL; in data set [11] (Staphylococcus aureus, MHB, read-out: MIC), 0.25 µg/mL (≈ 0.477 µM); in data set [12] (MHB), 2 to 4 µg/mL (≈ 3.81 to 7.62 µM); in data set [12] (MHB + 0.05% BSA), 1 to 2 µg/mL; in data set [12] (MHB + 10% FCS), 2 µg/mL. Further, in [5], the “effect of calf bovine serum on the MIC” value is “no significant effect”. The same compound had an LD50 in [10] above 16 µg/mL. Moreover, the values for the solubility in [13] (aqueous with cosolvent or surfactant or cyclodextrin) and in [13] (organic solvent or mixture) were 300 µg/mL (≈ 572 µM) and above 5000 µg/mL, respectively. Further, the “minimal concentration in which a 5 μL aliquot spotted onto a lawn of growing bacteria results in an observable zone of no growth” value in data set [14] is 0.67 µg/mL.
As for Triton X100, in data set [15], the “A450 (hemoglobin released)” value was found to be 0.41 and the “lysis of red blood cells” value was “complete lysis”.
